Assay results published in patent US9975882B2, “Heteroaromatic compounds as BTK inhibitors” (Boehringer Ingelheim International GmbH, priority 2015, dated 2018).
Read-outs that look alike come from different tables or passages of the source. Blank lines part the entries; values can stand above or below the molecule they belong to.

How the values were obtained:
[1] = test system: mean arterial pressure (MAP); details: rat, in vivo; for 5-Day 24-h MAP Change versus Control: po
Experimental: In-Vivo Assay—Comparison Between the Compounds of the Present Invention and Comparative Compounds A, B and C
In a side-by-side in-vivo study, select compounds of the present invention and comparative compounds A-C are evaluated in telemetry-instrumented conscious rats to determine their effects on mean arterial pressure (MAP) at doses at or above therapeutically relevant concentrations.
(§1) All animals (telemetry-instrumented) are single housed in metabolic cages. Rats are acclimated to the metabolic cage for at least 3 days and then dosed with vehicle for up to 4 days. Blood pressure, heart rate, and bodyweight are collected during the baseline period and animals are randomized into 3 groups based on these parameters (n=8-9/group). Treatment groups are: vehicle and test compound (10 mg/kg po and 30 mg/kg po qd); animals are treated with compound for 5 days. […] Mean arterial pressure (MAP) and heart rate (HR) are collected continuously throughout the study. Statistical analyses is performed using GraphPad Prism based on the average 24-hr mean value during five days of compound administration (one-way ANOVA with Dunnett's post-test vs. Vehicle; p<0.05 is considered statistically significant).

[2] = Plasma compound exposure in rats (tail bleed, day 6); type: in vivo; details: rat
Experimental: as §1

[3] = molecular target: human recombinant BTK (full length, His-tagged) (Homo sapiens (Human), UniProt Q06187); assay: BTK Z'-LYTE assay; type: biochemical; details: 25 μM ATP;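 also: FRET readout of kinase phosphorylating a coumarin and fluorescein labelled synthetic peptide, detected via protease sensitivity of unphosphorylated versus phosphorylated substrate, incubated at 22 °C in 384-well plates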
Sequence of human recombinant BTK (full length, His-tagged) (Q06187 whole entry): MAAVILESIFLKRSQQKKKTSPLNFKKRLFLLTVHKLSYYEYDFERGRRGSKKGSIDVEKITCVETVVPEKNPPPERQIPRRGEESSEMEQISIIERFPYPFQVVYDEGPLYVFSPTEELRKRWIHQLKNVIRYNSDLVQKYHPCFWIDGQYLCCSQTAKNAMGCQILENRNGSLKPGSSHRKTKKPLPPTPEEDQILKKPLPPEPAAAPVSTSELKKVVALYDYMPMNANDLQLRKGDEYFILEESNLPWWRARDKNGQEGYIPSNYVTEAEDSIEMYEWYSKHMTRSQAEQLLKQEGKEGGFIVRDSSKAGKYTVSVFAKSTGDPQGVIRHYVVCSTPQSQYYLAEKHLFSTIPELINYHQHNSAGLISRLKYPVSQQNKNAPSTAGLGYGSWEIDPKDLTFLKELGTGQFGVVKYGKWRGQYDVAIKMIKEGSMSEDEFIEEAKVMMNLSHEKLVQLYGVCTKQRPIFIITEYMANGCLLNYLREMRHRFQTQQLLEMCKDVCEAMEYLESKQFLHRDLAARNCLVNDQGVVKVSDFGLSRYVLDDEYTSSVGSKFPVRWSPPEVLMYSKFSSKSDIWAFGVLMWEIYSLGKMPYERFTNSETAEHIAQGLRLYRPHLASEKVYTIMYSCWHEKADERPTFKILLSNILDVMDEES
Experimental: Z′-LYTE™ Assay (Life Technologies):
(§3) The Z′-Lyte assay employs a FRET-based, coupled-enzyme format and is based on the differential sensitivity of phosphorylated and non-phosphorylated peptides to proteolytic Cleavage. The activity of human recombinant BTK (full length, His-tagged), BMX (full length, His-tagged) or Txk (full length, GST-tagged) is estimated by measuring the phosphorylation of a synthetic FRET peptide substrate labeled with Coumarin and Fluorescein. […] Incubations are carried out at 22° C. in black polypropylene 384-well plates (Corning).
(§4) Representative compounds of the present invention are assessed for inhibition of BTK, BMX, and TXK measuring phosphorylation of a substrate (Z′-LYTE™ assay, Life Technologies) and TEC measuring displacement of a “tracer” (Lanthscreen® Eu Kinase Binding assay, Life Technologies).

[4] = molecular target: human recombinant full length TEC (His-tagged) (Homo sapiens (Human), UniProt P42680); assay: TEC Lanthscreen Eu Kinase Binding assay; details: 1 nM TEC
Sequence of human recombinant full length TEC (His-tagged) (P42680 whole entry): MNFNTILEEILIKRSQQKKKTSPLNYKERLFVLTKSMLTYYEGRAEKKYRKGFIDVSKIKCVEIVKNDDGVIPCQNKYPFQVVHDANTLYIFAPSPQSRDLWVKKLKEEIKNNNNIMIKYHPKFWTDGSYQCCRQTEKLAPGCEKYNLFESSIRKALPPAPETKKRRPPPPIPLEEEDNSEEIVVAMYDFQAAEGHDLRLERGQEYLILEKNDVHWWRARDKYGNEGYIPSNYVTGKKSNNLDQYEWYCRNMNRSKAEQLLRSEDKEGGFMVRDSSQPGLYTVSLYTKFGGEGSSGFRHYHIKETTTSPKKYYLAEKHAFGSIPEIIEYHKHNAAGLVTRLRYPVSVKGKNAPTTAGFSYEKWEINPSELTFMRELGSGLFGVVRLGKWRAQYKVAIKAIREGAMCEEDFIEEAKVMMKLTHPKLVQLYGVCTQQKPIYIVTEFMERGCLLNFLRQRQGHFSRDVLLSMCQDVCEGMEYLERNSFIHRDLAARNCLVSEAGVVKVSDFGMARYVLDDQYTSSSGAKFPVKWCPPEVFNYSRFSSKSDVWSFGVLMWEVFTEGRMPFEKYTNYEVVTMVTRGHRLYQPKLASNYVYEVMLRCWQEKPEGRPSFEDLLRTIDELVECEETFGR

[5] = molecular target: human recombinant Txk (full length, GST-tagged) (Homo sapiens (Human), UniProt P42681); assay: TXK Z'-LYTE assay; details: read-out: TXK IC50, 100 μM ATP;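 also: FRET read-out of kinase phosphorylation of a synthetic peptide labelled with Coumarin and Fluorescein, scored by protease sensitivity of unphosphorylated peptide, incubated at 22 °C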
Sequence of human recombinant Txk (full length, GST-tagged) (P42681 whole entry): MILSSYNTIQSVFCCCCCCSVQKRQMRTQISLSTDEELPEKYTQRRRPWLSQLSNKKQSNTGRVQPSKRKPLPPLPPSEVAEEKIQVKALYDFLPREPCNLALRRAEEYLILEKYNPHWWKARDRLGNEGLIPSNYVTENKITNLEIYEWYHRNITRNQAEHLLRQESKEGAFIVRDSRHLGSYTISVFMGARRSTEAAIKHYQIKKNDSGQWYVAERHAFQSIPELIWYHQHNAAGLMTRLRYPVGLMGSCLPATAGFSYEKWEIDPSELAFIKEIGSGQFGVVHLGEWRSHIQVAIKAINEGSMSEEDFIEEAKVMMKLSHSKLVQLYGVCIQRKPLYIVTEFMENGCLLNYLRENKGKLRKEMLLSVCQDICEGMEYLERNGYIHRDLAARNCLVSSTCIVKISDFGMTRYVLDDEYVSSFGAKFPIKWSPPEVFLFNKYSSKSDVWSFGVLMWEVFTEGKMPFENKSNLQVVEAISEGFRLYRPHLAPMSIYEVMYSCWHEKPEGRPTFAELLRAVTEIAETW
Experimental: Z′-LYTE™ Assay (Life Technologies):
as §3, §4

[6] = molecular target: human full length His-tagged BTK (Homo sapiens (Human), UniProt Q06187); assay: BTK Lanthscreen Eu Kinase Binding assay; details: 2 nM BTK
Sequence of human full length His-tagged BTK (Q06187 whole entry): as the sequence (Q06187 whole entry) above
Experimental: BTK Lanthscreen® Eu Kinase Binding Assay:
A Lanthscreen® Eu Kinase Binding assay (Life Technologies) is performed to quantitate the ability of test compounds to bind to BTK. The assay is based on the binding and displacement of Alexa Fluor647-labeled Kinase Tracer #236 to the ATP-binding site of human full length His-tagged BTK (Life Technologies cat #PV3587) with TR-FRET detection using a europium-labeled anti-His antibody. The assay is assembled in 384-well low volume NBS black plates (Corning) where 2 nM BTK and test compound in DMSO at varying concentrations are pre-incubated for 30 min at 28° C. in assay buffer consisting of 50 mM HEPES, pH 7.4, 10 mM MgCl2, 1 mM EGTA. 100 μM Na3VO4 and 0.01% Brij 35. Then, 2 nM of Eu-anti His antibody and 30 nM Kinase Tracer are added and incubated for 60 min at 28° C. Following incubation, TR-FRET signal is read on an Envision plate reader (Excitation: 340 nm; Emissions: 615 and 665 nm). The 665:615 nm emission ratio is calculated and converted to POC compared to control and blank wells.

[7] = molecular target: EGFR (EGFR phosphorylation in A431 cells) (Homo sapiens (Human), UniProt P00533); assay: Inhibition of EGFR autophosphorylation in A431 human epithelial cells stimulated with EGF; type: cell-based; details: EGF 60 ng/mL, read-out: A431 p-EGFR IC50
Sequence of EGFR (EGFR phosphorylation in A431 cells) (P00533 25-1210): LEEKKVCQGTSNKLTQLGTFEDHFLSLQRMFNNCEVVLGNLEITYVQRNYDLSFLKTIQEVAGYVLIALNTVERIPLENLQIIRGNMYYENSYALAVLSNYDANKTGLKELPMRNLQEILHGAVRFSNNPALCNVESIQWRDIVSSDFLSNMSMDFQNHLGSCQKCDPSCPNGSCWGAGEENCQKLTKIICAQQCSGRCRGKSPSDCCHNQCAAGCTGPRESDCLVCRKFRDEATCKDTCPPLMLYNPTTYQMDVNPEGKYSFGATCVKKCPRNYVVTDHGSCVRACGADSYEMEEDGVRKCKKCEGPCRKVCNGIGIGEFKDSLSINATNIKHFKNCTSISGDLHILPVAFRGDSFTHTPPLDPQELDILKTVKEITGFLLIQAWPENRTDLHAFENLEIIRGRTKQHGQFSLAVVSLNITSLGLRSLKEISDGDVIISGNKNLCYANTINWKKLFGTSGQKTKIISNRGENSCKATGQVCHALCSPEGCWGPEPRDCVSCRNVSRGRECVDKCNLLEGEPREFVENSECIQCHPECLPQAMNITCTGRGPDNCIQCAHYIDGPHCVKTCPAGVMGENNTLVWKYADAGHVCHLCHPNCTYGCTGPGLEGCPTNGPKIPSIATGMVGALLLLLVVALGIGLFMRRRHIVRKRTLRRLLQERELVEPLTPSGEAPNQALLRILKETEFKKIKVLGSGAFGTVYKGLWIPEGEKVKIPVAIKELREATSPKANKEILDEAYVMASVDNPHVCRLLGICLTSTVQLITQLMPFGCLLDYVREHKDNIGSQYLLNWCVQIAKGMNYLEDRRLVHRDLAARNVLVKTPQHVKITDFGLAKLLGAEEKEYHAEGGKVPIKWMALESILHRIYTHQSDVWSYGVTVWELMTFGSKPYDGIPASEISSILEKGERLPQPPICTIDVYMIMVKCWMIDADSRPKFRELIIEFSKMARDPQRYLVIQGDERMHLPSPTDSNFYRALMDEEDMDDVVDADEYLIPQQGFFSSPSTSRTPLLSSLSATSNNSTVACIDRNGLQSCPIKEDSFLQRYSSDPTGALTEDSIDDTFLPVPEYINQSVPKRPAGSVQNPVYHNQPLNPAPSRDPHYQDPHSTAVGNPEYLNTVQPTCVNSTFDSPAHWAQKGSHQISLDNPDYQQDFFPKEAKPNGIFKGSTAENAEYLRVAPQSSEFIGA
Experimental: Inhibition of EGFR Autophosphorylation in A431 Human Epithelial Cells Stimulated with Epithelial Growth Factor
A431 cells (ATCC #CRL-1555 FZ) are thawed and plated in DMEM containing 10% FBS in a 384-well tissue culture treated plate at 15,000 cells/well. After incubating for 24 hours at 37° C., 5% CO2, the cells are treated with test compound (1% DMSO final concentration) and incubated for 16 hours at 37° C., 5% CO2. EGF (Millipore, 01-107) is added at a final concentration of 60 ng/mL and incubated for 10 minutes. The medium is removed, the cells are lysed, and phospho EGFR is measured (Meso Scale Diagnostics, N31CB-1).
(§2) Representative compounds of the present invention are tested and show BTK inhibition (Table I). […] Additionally, compounds of the present invention, as represented by examples in Table II, are selective for BTK inhibition over other related kinases. […] In this table the BTK activity is measured by IL-6 production in primary CD19^+ B cells, and the EGFR activity is measured by EGFR phosphorylation in A431 cells.

[8] = test system: BTK (IL-6 production in primary CD19+ B cells); assay: Inhibition of IL-6 production in B cells co-stimulated with ODN 2006 and anti-hIgD; type: cell-based; details: B-cell, anti-human IgD + ODN 2006
Experimental: Inhibition of IL-6 Production in B Cells Co-Stimulated with ODN 2006 and anti-hIgD
Primary CD19+ B cells (AllCells #PB010F) are thawed and plated in RPMI containing 10% HI FBS in a 384-well tissue cultured plate at 20,000 cells/well. The cells are treated with test compound (0.5% DMSO final concentration) and incubated for 1 hour at 37° C., 5% CO2. Cells are then stimulated with 5 ug/mL Goat F(ab′)2 anti-human IgD (SouthernBiotech #2032) and 2 uM ODN 2006 (InvivoGen #tlrl-2006) and incubated for 18-24 hours at 37° C., 5% CO2. IL-6 in the supernatant is measured using Meso Scale Discovery kit #K211AKB-6.
as §2

Compound: C=CC(=O)N1CCC[C@@H](n2nc(-c3ccc(Oc4ccccc4)cc3)c3c(N)ncnc32)C1 [Compound A, 1-[(3R)-3-[4-amino-3-(4-phenoxyphenyl)pyrazolo[3,4-d]pyrimidin-1-yl]-1-piperidyl]prop-2-en-1-one]
effect on mean arterial pressure (MAP) [1]: statistically significant increases in MAP
5-Day 24-h MAP Change versus Control ([1]; 10 mg/kg, 5 days): 3 ± 1 mmHg
5-Day 24-h MAP Change versus Control ([1]; 30 mg/kg, 5 days): 4 ± 1 mmHg
Cmax ([2]; plasma, 10 mg/kg po qd): 319 ± 36 nM
Cmax ([2]; plasma, 30 mg/kg po qd): 561 ± 183 nM

Compound: CC#CC(=O)N1CCC2(CC(n3nc(-c4ccc(OC(C)C)cc4)c(C(N)=O)c3N)C2)C1 (stereo not shown) [Compound B, 5-amino-1-(7-but-2-ynoyl-7-azaspiro[3.4]octan-2-yl)-3-(4-isopropoxyphenyl) pyrazole-4-carboxamide]
IC50 [3]: 0.9 nM
effect on mean arterial pressure (MAP) [1]: statistically significant increases in MAP
5-Day 24-h MAP Change versus Control ([1]; 10 mg/kg): 3 ± 1 mmHg
5-Day 24-h MAP Change versus Control ([1]; 30 mg/kg): 2 ± 1 mmHg
Cmax ([2]; 10 mg/kg po qd): 182 ± 17 nM
Cmax ([2]; 30 mg/kg po qd): 480 ± 53 nM
IC50 [4]: 44 nM

Compound: C=CC(=O)Nc1cccc(Nc2nc(Nc3ccc(OCCOC)cc3)ncc2F)c1 [Compound C, N-(3-(5-fluoro-2-(4-(2-methoxyethoxy)phenylamino)pyrimidin-4-ylamino)phenyl)acrylamide]
IC50 [5]: 22 nM
effect on mean arterial pressure (MAP) [1]: statistically significant increases in MAP
5-Day 24-h MAP Change versus Control ([1]; 10 mg/kg, 5 days): 4 ± 1 mmHg
5-Day 24-h MAP Change versus Control ([1]; 30 mg/kg, 5 days): 5 ± 1 mmHg
Cmax ([2]; plasma, 10 mg/kg po qd): 644 ± 96 nM
Cmax ([2]; plasma, 30 mg/kg po qd): 1730 ± 434 nM
IC50 [4]: 6.8 nM

Compound: CC#CC(=O)N1CC[C@]2(C1)C[C@H](n1nc(-c3cn(Cc4cccc(C(F)(F)F)c4)nc3C)c(C(N)=O)c1N)C2 [Example 19]
IC50 [3]: 5 nM
IC50 [6]: 0.9 nM
IC50 [7]: > 10000 nM
IC50 [5]: 220 nM
IC50 [4]: 160 nM
IC50 [8]: 2.3 nM

Compound: CC#CC(=O)N1CC[C@]2(C1)C[C@H](n1nc(-c3c(C)nn(Cc4cccc(C(F)(F)F)c4)c3C)c(C(N)=O)c1N)C2 [Example 21]
IC50 [3]: 40 nM
IC50 [6]: 5.8 nM
IC50 [7]: > 10000 nM
IC50 [5]: 1900 nM
IC50 [4]: 1100 nM
IC50 [8]: 9.2 nM

Compound: CC#CC(=O)N1CC[C@]2(C1)C[C@H](n1nc(-c3cnn(Cc4cccc(C(F)(F)F)c4)c3)c(C(N)=O)c1NC)C2 [Example 23]
IC50 [3]: 8.3 nM
IC50 [6]: 1.3 nM
IC50 [7]: > 10000 nM
IC50 [5]: 600 nM
IC50 [4]: 130 nM
IC50 [8]: 4.5 nM

Compound: CC#CC(=O)N1CC[C@]2(C1)C[C@H](n1nc(-c3ccn(Cc4cccc(C(F)(F)F)c4)n3)c(C(N)=O)c1N)C2 [Example 25]
IC50 [3]: 19 nM
IC50 [6]: 2.6 nM
IC50 [7]: > 10000 nM
IC50 [5]: 850 nM
IC50 [4]: 160 nM
IC50 [8]: 6.1 nM

Compound: C=CC(=O)N1CC[C@]2(C1)C[C@H](n1nc(-c3cnn(Cc4cccc(C(F)(F)F)c4F)c3)c(C(N)=O)c1N)C2 [Example 26]
IC50 [3]: 18 nM
IC50 [6]: 2.6 nM
IC50 [7]: > 10000 nM
IC50 [5]: 3000 nM
IC50 [4]: 430 nM
IC50 [8]: 4 nM

Compound: CC#CC(=O)N1CC[C@]2(C1)C[C@H](n1nc(-c3cnn(Cc4ccc(F)c(C(F)(F)F)c4)c3)c(C(N)=O)c1N)C2 [Example 30]
IC50 [3]: 3 nM
IC50 [6]: 0.6 nM
IC50 [7]: > 10000 nM
IC50 [5]: 160 nM
IC50 [4]: 64 nM
IC50 [8]: 2.4 nM

Compound: CC#CC(=O)N1CC[C@]2(C1)C[C@H](n1nc(-c3cnn(Cc4cccc(C(F)(F)F)c4F)c3)c(C(N)=O)c1N)C2 [Example 33]
IC50 [3]: 1.3 nM
IC50 [6]: 0.4 nM
IC50 [7]: > 10000 nM
IC50 [5]: 59 nM
IC50 [4]: 48 nM
IC50 [8]: 1.2 nM

Compound: CC#CC(=O)N1CC[C@]2(C1)C[C@H](n1nc(-c3cnn(Cc4cccc(C(F)F)c4)c3)c(C(N)=O)c1N)C2 [Example 36]
IC50 [3]: 1 nM
IC50 [6]: 0.2 nM
IC50 [7]: > 10000 nM
IC50 [5]: 50 nM
IC50 [4]: 22 nM
IC50 [8]: 0.5 nM

Compound: CC#CC(=O)N1CC[C@]2(C1)C[C@H](n1nc(-c3cnn(Cc4ccccc4)c3)c(C(N)=O)c1N)C2 [Example 44]
IC50 [3]: 1.4 nM
IC50 [6]: 0.3 nM
IC50 [7]: > 10000 nM
IC50 [5]: 78 nM
IC50 [4]: 20 nM
IC50 [8]: 0.7 nM

Compound: CC#CC(=O)N1CC2(CC(n3nc(-c4cnn(Cc5cccc(C(F)(F)F)c5)c4)c(C(N)=O)c3N)C2)C1 [Example 47]
IC50 [3]: 2.7 nM
IC50 [6]: 0.5 nM
IC50 [7]: > 10000 nM
IC50 [5]: 310 nM
IC50 [4]: 34 nM
IC50 [8]: 1.1 nM

Continued, values first:

IC50 [3]: 0.8 nM
IC50 [6]: 0.3 nM
IC50 [7]: > 10000 nM
IC50 [5]: 12 nM
IC50 [4]: 18 nM
IC50 [8]: 1.9 nM
Compound: CC#CC(=O)N1CC[C@]2(C1)C[C@H](n1nc(-c3cnn(Cc4cccc(C5CC5)c4)c3)c(C(N)=O)c1N)C2 [Example 51]

IC50 [3]: 7 nM
IC50 [6]: 1.2 nM
IC50 [7]: > 10000 nM
IC50 [5]: 260 nM
IC50 [4]: 100 nM
IC50 [8]: 0.5 nM
Compound: CC#CC(=O)N1CC[C@]2(C1)C[C@H](n1nc(-c3cn(Cc4cccc(C)c4)nc3C)c(C(N)=O)c1N)C2 [Example 52]

IC50 [3]: 1.3 nM
IC50 [6]: 0.3 nM
IC50 [7]: > 10000 nM
IC50 [5]: 84 nM
IC50 [4]: 47 nM
IC50 [8]: 0.4 nM
Compound: CC#CC(=O)N1CC[C@]2(C1)C[C@H](n1nc(-c3cnn(Cc4cccc(F)c4Cl)c3)c(C(N)=O)c1N)C2 [Example 53]

IC50 [3]: 1.5 nM
IC50 [6]: 0.5 nM
IC50 [7]: > 10000 nM
IC50 [5]: 110 nM
IC50 [4]: 35 nM
IC50 [8]: 0.4 nM
Compound: CC#CC(=O)N1CC[C@]2(C1)C[C@H](n1nc(-c3cnn(Cc4ccccc4Cl)c3)c(C(N)=O)c1N)C2 [Example 54]

IC50 [3]: 2.5 nM
IC50 [6]: 0.7 nM
IC50 [7]: > 10000 nM
IC50 [5]: 79 nM
IC50 [4]: 67 nM
IC50 [8]: 1.5 nM
Compound: CC#CC(=O)N1CC[C@]2(C1)C[C@H](n1nc(-c3cnn(Cc4cc(F)ccc4Cl)c3)c(C(N)=O)c1N)C2 [Example 55]

IC50 [3]: 2.2 nM
IC50 [6]: 0.6 nM
IC50 [7]: > 10000 nM
IC50 [5]: 150 nM
IC50 [4]: 120 nM
IC50 [8]: 0.7 nM
Compound: CC#CC(=O)N1CC[C@]2(C1)C[C@H](n1nc(-c3cnn(Cc4cccc(F)c4C(F)(F)F)c3)c(C(N)=O)c1N)C2 [Example 56]

IC50 [3]: 1.7 nM
IC50 [6]: 0.5 nM
IC50 [7]: > 10000 nM
IC50 [5]: 100 nM
IC50 [4]: 35 nM
IC50 [8]: 0.6 nM
Compound: CC#CC(=O)N1CC[C@]2(C1)C[C@H](n1nc(-c3cnn(Cc4ccccc4F)c3)c(C(N)=O)c1N)C2 [Example 60]
